Laboratory results as given in patent US4073935A, “Substituted propanol-(2)-derivatives and their nicotinic acid esters, and process for their preparation, and the use thereof as hypolipemic drugs” (Klinge Pharma GmbH & Co., priority 1974, dated 1978).
Read-outs that look alike come from different tables or passages of the source.

System: serum lipids
Assay: Lipid-lowering action in normolipemic rats
Assay type: in vivo
Conditions: Rattus norvegicus, 72 h, 4 × 100 mg/kg oral over 3 days, male Wistar rats, vs controls, X ± Sx
Procedure: Lipid-lowering action was tested on groups of 10 male Wistar rats (Ivanovas-Kisslegg), weight 200-220 g, normolipemic, or ordinary ration ("ssniff" complete feed).
The test compounds were taken up in an aqueous solution of 0.25% agar and 0.85% NaCl and administered orally. After administration of 4 × 100 mg/kg over a period of 3 days, the animals were bled by cardiac puncture after privation of […] for 4 hours.^1
^1 H. Enomoto and R. Zschocke, 3rd Int. Symp. Atheroscler, Berlin 1973, Abstr. 238.
Serum lipids were determined with a Technicon autoanalyzer. Total cholesterol (TC) was tested by the Liebermann-Burchard reaction. Quantitative analysis for triglycerides (TG) was performed by Eggstein and Kreutz's enzyme method (Klin. Wschr. 44, 262, 1966), modified for autoanalyzer.
Lipid lowering effect is expressed as percent lowering of total cholesterol and triglycerides compared to controls.

[1] = read-out: % Lowering TC (total cholesterol)
[2] = read-out: % Lowering TG (triglycerides)

| SMILES | inhibition in vivo at 100 mg/kg [1] | inhibition in vivo at 100 mg/kg [2] |
| --- | --- | --- |
| COC(=O)c1ccc(OCC(O)COc2ccc(Cl)cc2)cc1 (stereo not drawn) [Compound 1, 3-(4'-methoxycarbonylphenoxy)-1-(4'-chlorophenoxy)propanol-(2)] | 47.9 ± 10.2% | 63.8 ± 17.2% |
| CCOC(=O)c1ccc(OCC(O)COc2ccc(Cl)cc2)cc1 (stereo not drawn) [Compound 2] | 40.4 ± 24.3% | 60.2 ± 8.4% |
| C=CCOC(=O)c1ccc(OCC(O)COc2ccc(Cl)cc2)cc1 (stereo not drawn) [Compound 3] | 35.9 ± 18.1% | 68.6 ± 11% |
| CCCOC(=O)c1ccc(OCC(O)COc2ccc(Cl)cc2)cc1 (stereo not drawn) [Compound 4] | 53 ± 7.5% | 74.2 ± 13.4% |
| CC(C)OC(=O)c1ccc(OCC(O)COc2ccc(Cl)cc2)cc1 (stereo not drawn) [Compound 5] | 15.5 ± 14.7% | 54.6 ± 28.3% |
| COC(=O)c1cccc(OCC(O)COc2ccc(Cl)cc2)c1 (stereo not drawn) [Compound 6] | 28.5 ± 10% | 78.1 ± 11.2% |
| CC(C)OC(=O)c1cccc(OCC(O)COc2ccc(Cl)cc2)c1 (stereo not drawn) [Compound 7] | 32.1 ± 18.1% | 73.2 ± 8.3% |
| COC(=O)C=Cc1ccc(OCC(O)COc2ccc(Cl)cc2)cc1 (stereo not drawn) [Compound 8, 3-(4'-(2-methoxycarbonylvinyl)-phenoxy)-1-(4'-chlorophenoxy)-propanol-(2)] | 17.3 ± 26% | 52.1 ± 7.7% |
| COC(=O)CCc1ccc(OCC(O)COc2ccc(Cl)cc2)cc1 (stereo not drawn) [Compound 9] | 44.5 ± 17.5% | 87.9 ± 11.9% |
| CCOC(=O)C=Cc1ccc(OCC(O)COc2ccc(Cl)cc2)cc1 (stereo not drawn) [Compound 10] | 38.4 ± 5.6% | 77.4 ± 8.5% |
| C=CCOC(=O)C=Cc1ccc(OCC(O)COc2ccc(Cl)cc2)cc1 (stereo not drawn) [Compound 11] | 76.1 ± 3.7% | 40.2 ± 10.3% |
| CCCOC(=O)C=Cc1ccc(OCC(O)COc2ccc(Cl)cc2)cc1 (stereo not drawn) [Compound 12] | 40.3 ± 10.8% | 67 ± 15.7% |
| CC(C)OC(=O)C=Cc1ccc(OCC(O)COc2ccc(Cl)cc2)cc1 (stereo not drawn) [Compound 13] | 50.4 ± 7.3% | 79.7 ± 10.4% |
| COC(=O)C=Cc1cccc(OCC(O)COc2ccc(Cl)cc2)c1 (stereo not drawn) [Compound 14] | 22.9 ± 5.2% | 64.8 ± 17.7% |
| C=CCOC(=O)c1ccc(OCC(O)COc2ccc(C(C)(C)C)cc2)cc1 (stereo not drawn) [Compound 17] | 55.8 ± 7.1% | 83.4 ± 8.8% |
| CCCOC(=O)c1ccc(OCC(O)COc2ccc(C(C)(C)C)cc2)cc1 (stereo not drawn) [Compound 18] | 34.4 ± 6.9% | 68.3 ± 23.1% |
| CC(C)OC(=O)c1ccc(OCC(O)COc2ccc(C(C)(C)C)cc2)cc1 (stereo not drawn) [Compound 19] | 44.9 ± 8% | 72.9 ± 6.1% |
| COC(=O)CCc1ccc(OCC(O)COc2ccc(C(C)(C)C)cc2)cc1 (stereo not drawn) [Compound 22, 3-(4'-(2-methoxycarbonylethyl)-phenoxy)-1-(4'-tert.-butylphenoxy)-propanol-(2)] | 46.9 ± 11.4% | 79 ± 10.7% |
| CCCOC(=O)C=Cc1ccc(OCC(O)COc2ccc(C(C)(C)C)cc2)cc1 (stereo not drawn) [Compound 23] | 40.9 ± 9.3% | 77.9 ± 5.5% |
| COC(=O)c1ccc(OCC(O)CNc2ccc(Cl)cc2)cc1 (stereo not drawn) [Compound 26, 3-(4'-methoxycarbonylphenoxy)-1-(4'-chlorophenylamino)-propanol-(2)] | 25.8 ± 23.7% | 81 ± 5.2% |
| CC(C)OC(=O)c1ccc(OCC(O)CNc2ccc(Cl)cc2)cc1 (stereo not drawn) [Compound 28] | 30.8 ± 9.7% | 64.6 ± 16.9% |
| COC(=O)C=Cc1ccc(OCC(O)CNc2ccc(Cl)cc2)cc1 (stereo not drawn) [Compound 29] | 12.7 ± 12.5% | 62.3 ± 10.7% |
| COC(=O)c1ccc(NCC(O)COc2ccc(Cl)cc2)cc1 (stereo not drawn) [Compound 30] | 12.1 ± 8.6% | 69.3 ± 15.9% |
| CCOC(=O)c1ccc(NCC(O)COc2ccc(Cl)cc2)cc1 (stereo not drawn) [Compound 31] | 33.3 ± 17.6% | 63.6 ± 18.5% |
